Assay results as given in US10604512B2, “3-(1H-indol-2-yl)-1H-indazoles and therapeutic uses thereof” (Samumed, LLC, priority 2015, dated 2020).

Columns and labels:
[1] = test system: Wnt activity (Sp5-Luc reporter, TCF/LEF binding sites) in SW480 colon carcinoma cells; experiment: Screening assay for Wnt activity: Sp5-Luc reporter gene assay in stably transduced SW480 colon carcinoma cells; format: cell-based; details: Homo sapiens, overnight incubation, 10-point curve from 10 μM
Method in brief: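 SW480 cells stably transduced with a luciferase reporter driven by an Sp5 promoter of eight TCF/LEF sites were plated at 4,000 cells/well in 1% FBS medium. They were exposed overnight at 37° C to a 10-point 1:3 dilution series from 10 μM (0.1% DMSO). Luminescence was normalized to DMSO for four-parameter EC50, or percent inhibition at 10 μM.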

[2] = test system: IL-6; experiment: Inhibition of IL-6 in LPS-stimulated THP-1 human monocyte cells (HTRF); format: cell-based; details: for EC50: IL-6 inhibition, LPS-stimulated THP-1 cells, HTRF; for inhibition at 10 µM: THP-1, printed beside >10 μM EC50, top concentration 10 μM, meaning not given, read-out: percentage in parentheses after EC50 >10
Method in brief: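 THP-1 cells serum-reduced (1% FBS, 24 h), then 5000 cells/well preincubated 2 h with compound (10-point 1:3 series from 10 μM, 0.1% DMSO) before 500 ng/mL LPS for 22 h at 37 °C. Secreted IL-6 quantified by HTRF 665/620 ratio; DMSO-normalised duplicates fitted to four-parameter EC50; above 10 μM, % inhibition at 10 μM given.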

| SMILES | EC50 [1] [µM] | EC50 [2] [µM] | inhibition at 10 µM [2] [%] |
| --- | --- | --- | --- |
| Fc1cccc(-c2cccc3[nH]c(-c4n[nH]c5ccc(-c6ccncc6)cc45)cc23)c1 [Compound 18, 3-(4-(3-Fluorophenyl)-1H-indol-2-yl)-5-(pyridin-4-yl)-1H-indazole] | 4.62 | 0.031 | – |
| CC(C)(C)CC(=O)Nc1cncc(-c2ccc3[nH]nc(-c4cc5c(-c6ccsc6)cccc5[nH]4)c3c2)c1 [Compound 296, 3,3-Dimethyl-N-(5-(3-(4-(thiophen-3-yl)-1H-indol-2-yl)-1H-indazol-5-yl)pyridin-3-yl)butanamide] | 0.455 | > 10 | 31.6 |
| O=C(Nc1cncc(-c2ccc3[nH]nc(-c4cc5c(-c6ccsc6)cccc5[nH]4)c3c2)c1)C1CCCCC1 [Compound 303, N-(5-(3-(4-(Thiophen-3-yl)-1H-indol-2-yl)-1H-indazol-5-yl)pyridin-3-yl) cyclohexanecarboxamide] | 1.15 | > 10 | 43.9 |
| Nc1cncc(-c2ccc3[nH]nc(-c4cc5c(-c6ccoc6)cccc5[nH]4)c3c2)c1 [Compound 311, 5-(3-(4-(Furan-3-yl)-1H-indol-2-yl)-1H-indazol-5-yl)pyridin-3-amine] | 0.04 | 0.519 | – |

Further lines, with some results ahead:

| EC50 [1] [µM] | EC50 [2] [µM] | SMILES | inhibition at 10 µM [2] [%] |
| --- | --- | --- | --- |
| 1.12 | 0.304 | O=C(Cc1ccccc1)Nc1cncc(-c2ccc3[nH]nc(-c4cc5c(-c6ccoc6)cccc5[nH]4)c3c2)c1 [Compound 318, N-(5-(3-(4-(Furan-3-yl)-1H-indol-2-yl)-1H-indazol-5-yl)pyridin-3-yl)-2-phenylacetamide] | – |
| 3.77 | 7.58 | c1cc(-c2ccoc2)c2cc(-c3n[nH]c4ccc(-c5cncc(CNCC6CCCC6)c5)cc34)[nH]c2c1 [Compound 333, 1-Cyclopentyl-N-((5-(3-(4-(furan-3-yl)-1H-indol-2-yl)-1H-indazol-5-yl)pyridin-3-yl)methyl)methanamine] | – |
